Structures are written as SMILES.

human mGluR5A, sequence (P41594 other isoform, or with tags, fused parts or gaps): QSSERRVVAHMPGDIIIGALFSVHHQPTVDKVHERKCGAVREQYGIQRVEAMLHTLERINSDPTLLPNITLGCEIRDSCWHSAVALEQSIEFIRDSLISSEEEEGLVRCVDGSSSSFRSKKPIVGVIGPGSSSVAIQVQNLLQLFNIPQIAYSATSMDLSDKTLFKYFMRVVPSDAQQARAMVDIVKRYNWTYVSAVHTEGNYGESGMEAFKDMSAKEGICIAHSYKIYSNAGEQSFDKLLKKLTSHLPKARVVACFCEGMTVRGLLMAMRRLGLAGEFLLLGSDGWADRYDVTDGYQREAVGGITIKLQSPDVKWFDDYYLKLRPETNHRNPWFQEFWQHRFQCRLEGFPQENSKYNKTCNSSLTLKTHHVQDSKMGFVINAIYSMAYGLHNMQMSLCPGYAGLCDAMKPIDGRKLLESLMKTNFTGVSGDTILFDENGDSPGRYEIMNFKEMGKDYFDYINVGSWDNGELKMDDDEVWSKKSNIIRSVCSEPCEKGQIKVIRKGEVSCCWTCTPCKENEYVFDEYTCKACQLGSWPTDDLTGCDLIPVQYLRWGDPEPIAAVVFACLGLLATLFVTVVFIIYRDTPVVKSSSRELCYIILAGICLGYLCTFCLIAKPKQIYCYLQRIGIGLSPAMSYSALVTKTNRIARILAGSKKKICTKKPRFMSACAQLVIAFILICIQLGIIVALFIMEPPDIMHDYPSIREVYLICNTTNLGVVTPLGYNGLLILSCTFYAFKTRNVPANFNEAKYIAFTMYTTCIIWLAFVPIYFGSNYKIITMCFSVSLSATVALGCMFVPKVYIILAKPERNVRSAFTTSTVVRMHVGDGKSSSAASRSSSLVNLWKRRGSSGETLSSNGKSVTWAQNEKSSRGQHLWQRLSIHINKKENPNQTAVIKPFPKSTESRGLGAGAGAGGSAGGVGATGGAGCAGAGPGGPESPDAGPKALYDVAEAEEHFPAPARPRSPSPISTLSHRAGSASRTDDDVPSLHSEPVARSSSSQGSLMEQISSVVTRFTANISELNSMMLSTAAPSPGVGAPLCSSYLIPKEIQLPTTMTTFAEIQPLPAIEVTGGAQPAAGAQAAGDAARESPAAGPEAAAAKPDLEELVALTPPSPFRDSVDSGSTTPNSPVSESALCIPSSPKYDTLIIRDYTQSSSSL

The target in this assay is human mGluR5A (Homo sapiens (Human), UniProt P41594). In words: mGluR5 FLIPR Assay. The note with it: positive modulator activity, HEK293 (ZF) cells with human mGluR5A and rat GLAST, Ca++ response to ~EC10 l-glutamate. The class given is cell-based. The protocol:
HEK293 (ZF) cells stably transfected with human mGluR5A (pIRES neo) and the rat glutamate-aspartate transporter (GLAST; pIRES puro) are grown in a monolayer culture at 37° C. in 5% CO2 and fed with Minimum Essential Medium (MEM) supplemented with 10% dialysed fetal bovine serum. […] Plates are incubated in dye at 37° C. in 5% CO2 for 60 minutes prior to delivery of test compounds in assay buffer. Test compounds are incubated with cells in the presence of dye for 10 minutes prior to being read on the FLIPR platform (Molecular Devices). A Ca^++ signal is induced in the assay plates via the delivery of an ˜EC10 concentration of the endogenous agonist 1-glutamate; images are acquired at 1 Hz for 100 seconds post-delivery of agonist stimulus. Positive modulator activity (i.e. the ability of test compounds to increase the Ca^++ response to a sub-maximal concentration of agonist) is normalized to a saturating concentration of a known mGluR5 PAM run in each assay plate. An EC50 concentration of test compounds is derived from 4-parameter logistic curve fits of transformed fluoresence data via proprietary software suite.
The term EC50 denotes the concentration that produces a half-maximal response. A lower EC50 goes with higher potency in that assay. With `CC(O)CCC#Cc1cncc([C@H]2NC(=O)O[C@@H]2c2cccc(F)c2)c1` (single isomer, unassigned) [Example 7], the EC50 was found to be 5.9 nM.
Then `CCCC(O)C#Cc1cncc([C@H]2NC(=O)O[C@@H]2c2cccc(F)c2)c1` (single isomer, unassigned) [Example 15], with 20.4 nM; and `CCC(O)CC#Cc1cncc([C@H]2NC(=O)O[C@@H]2c2cccc(F)c2)c1` (single isomer, unassigned) [Example 19], with 27.6 nM.
With `CCC(O)CC#Cc1cncc([C@H]2NC(=O)O[C@@H]2c2cccc(F)c2)c1` (single isomer, unassigned) [Example 20], the EC50 was 60.8 nM.
`CCCC(O)C#Cc1cncc([C@H]2NC(=O)O[C@@H]2c2cccc(F)c2)c1` (single isomer, unassigned) [Example 22] showed an EC50 of 32.3 nM.
On to `O=C1N[C@H](c2cncc(C#CC(O)C3CC3)c2)[C@@H](c2cccc(F)c2)O1` (single isomer, unassigned) [Example 57], for which the response was half-maximal at 77.3 nM (EC50).
Under `O=C1N[C@H](c2cncc(C#CC(O)C3CC3)c2)[C@@H](c2cccc(F)c2)O1` (single isomer, unassigned) [Example 59] stands 226 nM; under `O=C1N[C@H](c2cncc(C#CC(O)CC3CC3)c2)[C@@H](c2cccc(F)c2)O1` (single isomer, unassigned) [Example 73], 27.9 nM; under `O=C1N[C@H](c2cncc(C#CC(O)CC3CC3)c2)[C@@H](c2cccc(F)c2)O1` (single isomer, unassigned) [Example 74], 27.4 nM.
`O=C1N[C@H](c2cncc(C#CCC3CCC3)c2)[C@@H](c2cccc(F)c2)O1` [Example 1, (4R,5R)-4-(5-(3-Cyclobutylprop-1-yn-1-yl)pyridin-3-yl)-5-(3-fluorophenyl)oxazolidin-2-one] registered an EC50 of 1.7 nM.
Under `CCSCC#Cc1cncc([C@H]2NC(=O)O[C@@H]2c2cccc(F)c2)c1` [Example 2] stands 2 nM.
`CCCCC#Cc1cncc([C@H]2NC(=O)O[C@@H]2c2cccc(F)c2)c1` [Example 3]: the EC50 was found to be 2.2 nM.
Turning to `O=C1N[C@H](c2cncc(C#CCC3CC3)c2)[C@@H](c2cccc(F)c2)O1` [Example 4], the response was half-maximal at 3.6 nM (EC50).
Then `CC(C)CCC#Cc1cncc([C@H]2NC(=O)O[C@@H]2c2cccc(F)c2)c1` [Example 5], with 4.7 nM; and `CCCC#Cc1cncc([C@H]2NC(=O)O[C@@H]2c2cccc(F)c2)c1` [Example 6], with 5.2 nM.
Under `CC(O)CCC#Cc1cncc([C@H]2NC(=O)O[C@@H]2c2cccc(F)c2)c1` (some centres unmarked) [Example 8] stands 12.3 nM; under `CC(C)CC#Cc1cncc([C@H]2NC(=O)O[C@@H]2c2cccc(F)c2)c1` [Example 9], 11.4 nM; under `CC(O)CCC#Cc1cncc([C@H]2NC(=O)O[C@@H]2c2cccc(F)c2)c1` (some centres unmarked) [Example 10], 12.6 nM.
Compound `O=C1N[C@H](c2cncc(C#CCC3CCOCC3)c2)[C@@H](c2cccc(F)c2)O1` [Example 11] yielded an EC50 of 13.6 nM.
Under `CCCC(O)C#Cc1cncc([C@H]2NC(=O)O[C@@H]2c2cccc(F)c2)c1` (some centres unmarked) [Example 12] stands 15.4 nM; under `O=C1N[C@H](c2cncc(C#CCC3CCCCC3)c2)[C@@H](c2cccc(F)c2)O1` [Example 13], 16.4 nM; under `O=C1N[C@H](c2cncc(C#CC(O)C3CCC3)c2)[C@@H](c2cccc(F)c2)O1` (some centres unmarked) [Example 14], 16.6 nM.
Then `CCC(C)(O)C#Cc1cncc([C@H]2NC(=O)O[C@@H]2c2cccc(F)c2)c1` (some centres unmarked) [Example 16], with above 3230 nM; and `COCCC#Cc1cncc([C@H]2NC(=O)O[C@@H]2c2cccc(F)c2)c1` [Example 17], with 23.2 nM; and `CCC(O)CC#Cc1cncc([C@H]2NC(=O)O[C@@H]2c2cccc(F)c2)c1` (some centres unmarked) [Example 21], with 29.5 nM.
Under `CCCC(C)C#Cc1cncc([C@H]2NC(=O)O[C@@H]2c2cccc(F)c2)c1` (some centres unmarked) [Example 23] stands 43.6 nM; under `O=C1N[C@H](c2cncc(C#CCOc3ccccc3)c2)[C@@H](c2cccc(F)c2)O1` [Example 24], 43.9 nM; under `CC(C)CC(O)C#Cc1cncc([C@H]2NC(=O)O[C@@H]2c2cccc(F)c2)c1` (some centres unmarked) [Example 25], 45.2 nM.
Take `Cc1ccn(CC#Cc2cncc([C@H]3NC(=O)O[C@@H]3c3cccc(F)c3)c2)n1` [Example 26]: the midpoint of the response, the EC50, lay at 46.2 nM.
The compound `O=C1N[C@H](c2cncc(C#CCn3cc(Cl)cn3)c2)[C@@H](c2cccc(F)c2)O1` [Example 27] showed an EC50 of 48.2 nM.
In turn, `CC(C)C(O)C#Cc1cncc([C@H]2NC(=O)O[C@@H]2c2cccc(F)c2)c1` (some centres unmarked) [Example 28] had an EC50 of 76.9 nM.
Then `O=C1N[C@H](c2cncc(C#CCC3CC3(F)F)c2)[C@@H](c2cccc(F)c2)O1` (some centres unmarked) [Example 29], with 77.5 nM; and `O=C1N[C@H](c2cncc(C#CC(O)C3CCCCC3)c2)[C@@H](c2cccc(F)c2)O1` (some centres unmarked) [Example 30], with 85.1 nM.
Compound `Cc1ccnn1CC#Cc1cncc([C@H]2NC(=O)O[C@@H]2c2cccc(F)c2)c1` [Example 31] showed an EC50 of 108 nM.
Then `CCC(O)C#Cc1cncc([C@H]2NC(=O)O[C@@H]2c2cccc(F)c2)c1` (some centres unmarked) [Example 32], with 116 nM.
Then `O=C1N[C@H](c2cncc(C#CCn3ccnc3)c2)[C@@H](c2cccc(F)c2)O1` [Example 33], with 134 nM; and `CC(C)(C)OCC#Cc1cncc([C@H]2NC(=O)O[C@@H]2c2cccc(F)c2)c1` [Example 34], with 244 nM; and `N#CCCC#Cc1cncc([C@H]2NC(=O)O[C@@H]2c2cccc(F)c2)c1` [Example 35], with 255 nM.
As for `O=C1N[C@H](c2cncc(C#CCN3CCOCC3)c2)[C@@H](c2cccc(F)c2)O1` [Example 36], the EC50 is 291 nM.
Then `COCC(O)CC#Cc1cncc([C@H]2NC(=O)O[C@@H]2c2cccc(F)c2)c1` (some centres unmarked) [Example 37], with 383 nM.
For `O=C1N[C@H](c2cncc(C#CCOC3CCCCO3)c2)[C@@H](c2cccc(F)c2)O1` (some centres unmarked) [Example 38], the concentration for a half-maximal effect (EC50) was 498 nM.
Compound `O=C1N[C@H](c2cncc(C#CC3(O)CCCC3)c2)[C@@H](c2cccc(F)c2)O1` [Example 39] came in with an EC50 of 510 nM.
Compound `CC(C)(O)CC#Cc1cncc([C@H]2NC(=O)O[C@@H]2c2cccc(F)c2)c1` [Example 40] yielded an EC50 of 513 nM.
`O=C1N[C@H](c2cncc(C#CCN3CCCCC3)c2)[C@@H](c2cccc(F)c2)O1` [Example 41] gave an EC50 of 730 nM.
For `CC(O)CC#Cc1cncc([C@H]2NC(=O)O[C@@H]2c2cccc(F)c2)c1` (some centres unmarked) [Example 42], the EC50 was above 1610 nM.
`O=C1N[C@H](c2cncc(C#CCc3ccccc3)c2)[C@@H](c2cccc(F)c2)O1` [Example 43] yielded a half-maximal effective concentration (EC50) above 1610 nM.
Then `CN(C)CCC#Cc1cncc([C@H]2NC(=O)O[C@@H]2c2cccc(F)c2)c1` [Example 44], with above 1610 nM; and `CC(=O)NCC#Cc1cncc([C@H]2NC(=O)O[C@@H]2c2cccc(F)c2)c1` [Example 45], with above 1610 nM.
Under `O=C1N[C@H](c2cncc(C#CCC3(O)CCC3)c2)[C@@H](c2cccc(F)c2)O1` [Example 46] stands above 1610 nM; under `O=C1N[C@H](c2cncc(C#CCN3CCCC3=O)c2)[C@@H](c2cccc(F)c2)O1` [Example 47], above 1610 nM.
Under `O=C1N[C@H](c2cncc(C#CCNC(=O)C(F)(F)F)c2)[C@@H](c2cccc(F)c2)O1` [Example 48] stands above 1610 nM; under `O=C1N[C@H](c2cncc(C#CCn3ncc4ccccc43)c2)[C@@H](c2cccc(F)c2)O1` [Example 49], above 1610 nM.
`CC(C)C#Cc1cncc([C@H]2NC(=O)O[C@@H]2c2cccc(F)c2)c1` [Example 50] came in with an EC50 above 3230 nM.
Under `CCCCCC#Cc1cncc([C@H]2NC(=O)O[C@@H]2c2cccc(F)c2)c1` [Example 51] stands 8.1 nM; under `O=C1N[C@H](c2cncc(C#CCOCC(F)(F)F)c2)[C@@H](c2cccc(F)c2)O1` [Example 52], 9.3 nM; under `CCOCC#Cc1cncc([C@H]2NC(=O)O[C@@H]2c2cccc(F)c2)c1` [Example 53], 16.2 nM.
As for `Cc1cnn(CC#Cc2cncc([C@H]3NC(=O)O[C@@H]3c3cccc(F)c3)c2)c1` [Example 54], the EC50 was found to be 107 nM.
For `CCOCCC#Cc1cncc([C@H]2NC(=O)O[C@@H]2c2cccc(F)c2)c1` [Example 55], the EC50 came out at 27.8 nM.
Take `CCCCC(O)C#Cc1cncc([C@H]2NC(=O)O[C@@H]2c2cccc(F)c2)c1` (some centres unmarked) [Example 56]: the response was half-maximal at 67 nM (EC50).
Under `O=C1N[C@H](c2cncc(C#CC(O)C3CC3)c2)[C@@H](c2cccc(F)c2)O1` (some centres unmarked) [Example 58] stands 204 nM; under `COCC#Cc1cncc([C@H]2NC(=O)O[C@@H]2c2cccc(F)c2)c1` [Example 60], 458 nM.
Then `CC(C)(C)C#Cc1cncc([C@H]2NC(=O)O[C@@H]2c2cccc(F)c2)c1` [Example 61], with above 3230 nM; and `O=C1N[C@H](c2cncc(C#CCn3cccn3)c2)[C@@H](c2cccc(F)c2)O1` [Example 62], with 10.9 nM.
Consider `O=C1N[C@H](c2cncc(C#CCC3CCCO3)c2)[C@@H](c2cccc(F)c2)O1` (some centres unmarked) [Example 63], for which the EC50 was found to be 12.4 nM.
`O=C1N[C@H](c2cncc(C#CCC3CCOC3)c2)[C@@H](c2cccc(F)c2)O1` (some centres unmarked) [Example 64] displayed an EC50 of 20 nM.

The values are drawn from patent US9688669B2, “Oxazolidinones as modulators of mGluR5” (BRISTOL-MYERS SQUIBB COMPANY, priority 2013, dated 2017).
